Source: patent EP0711545B1, “Aqueous mild surfactants containing preparations for cosmetic and cleaning use” (priority 1994, dated 1996)

Test system: Rote Blutkörperchen
Assay: Red blood cell test (RBC test): lysis of blood cells and denaturation of released haemoglobin
Assay type: cell-based
Excerpt: Fettsäureamidopropylbetaine, abgeleitet von Fettsäuren unterschiedlicher Kettenlängen, werden mit Hilfe einer in-vitro-Methode, dem Rote-Blutkörperchen-Test (RBC), auf ihre physiologische Verträglichkeit untersucht.
Hierbei werden zur Charakterisierung der typischen irritativen Wechselbeziehung von Tensiden mit intakten Zellstrukturen die Zerstörung der Blutzellen durch Lyse und die Denaturierung des freigesetzten Hämoglobins gemessen. Das Ergebnis stellt der Quotient aus Lyse (L) und Denaturierung (D) L/D dar. Je kleiner der L/D-Wert ist, desto reizender ist die Substanz bzw. Formulierung einzustufen.

[1] = Table 1: single betaines, the smaller L/D, the more irritant
[2] = Table 1: single fatty acid amidopropyl betaines
[3] = Table 3: 10 % betaine + 5 % APG in water
[4] = Table 3: 10 % betaine + 5 % LSSDNa in water
[5] = Table 3: 10 % betaine + 5 % NaLSC in water

| SMILES | L/D [1] | Denaturierung (D) [2] | Lyse (L) [2] | Denaturierung (D) [3] | L/D [3] | Lyse (L) [3] | Denaturierung (D) [4] | L/D [4] | Lyse (L) [4] | Denaturierung (D) [5] | L/D [5] | Lyse (L) [5] |
| --- | --- | --- | --- | --- | --- | --- | --- | --- | --- | --- | --- | --- |
| CCCCCCCC(=O)NCCC[N+](C)(C)CC(=O)[O-] [C8-Betain] | >> 100 | keine Hämolyse | keine Hämolyse |  |  |  |  |  |  |  |  |  |
| CCCCCCCCCC(=O)NCCC[N+](C)(C)CC(=O)[O-] [C10-Betain] | >> 100 | keine Hämolyse | keine Hämolyse |  |  |  |  |  |  |  |  |  |
| CCCCCCCCCCCC(=O)NCCC[N+](C)(C)CC(=O)[O-] [C12-Betain] | 8,9 | 17 | 151 | <1 | >100 | 81 | 13 | 3,8 | 49 | 18 | 4,7 | 84 |
| CCCCCCCCCCCCCC(=O)NCCC[N+](C)(C)CC(=O)[O-] [C14-Betain] | 1,4 | 9,2 | 13 |  |  |  |  |  |  |  |  |  |
| CCCCCCCCCCCCCCCC(=O)NCCC[N+](C)(C)CC(=O)[O-] [C16-Betain] | 1,0 | 4,4 | 4,4 |  |  |  |  |  |  |  |  |  |
